In ChEMBL document CHEMBL1158883, “Flavanone glycosides from Miconia trailii” (J Nat Prod, 2003):

Target: Fatty acid synthase (Homo sapiens, UniProt P49327)
Assay: Inhibition of fatty acid synthase

Fatty acid synthase, sequence (P49327 whole entry): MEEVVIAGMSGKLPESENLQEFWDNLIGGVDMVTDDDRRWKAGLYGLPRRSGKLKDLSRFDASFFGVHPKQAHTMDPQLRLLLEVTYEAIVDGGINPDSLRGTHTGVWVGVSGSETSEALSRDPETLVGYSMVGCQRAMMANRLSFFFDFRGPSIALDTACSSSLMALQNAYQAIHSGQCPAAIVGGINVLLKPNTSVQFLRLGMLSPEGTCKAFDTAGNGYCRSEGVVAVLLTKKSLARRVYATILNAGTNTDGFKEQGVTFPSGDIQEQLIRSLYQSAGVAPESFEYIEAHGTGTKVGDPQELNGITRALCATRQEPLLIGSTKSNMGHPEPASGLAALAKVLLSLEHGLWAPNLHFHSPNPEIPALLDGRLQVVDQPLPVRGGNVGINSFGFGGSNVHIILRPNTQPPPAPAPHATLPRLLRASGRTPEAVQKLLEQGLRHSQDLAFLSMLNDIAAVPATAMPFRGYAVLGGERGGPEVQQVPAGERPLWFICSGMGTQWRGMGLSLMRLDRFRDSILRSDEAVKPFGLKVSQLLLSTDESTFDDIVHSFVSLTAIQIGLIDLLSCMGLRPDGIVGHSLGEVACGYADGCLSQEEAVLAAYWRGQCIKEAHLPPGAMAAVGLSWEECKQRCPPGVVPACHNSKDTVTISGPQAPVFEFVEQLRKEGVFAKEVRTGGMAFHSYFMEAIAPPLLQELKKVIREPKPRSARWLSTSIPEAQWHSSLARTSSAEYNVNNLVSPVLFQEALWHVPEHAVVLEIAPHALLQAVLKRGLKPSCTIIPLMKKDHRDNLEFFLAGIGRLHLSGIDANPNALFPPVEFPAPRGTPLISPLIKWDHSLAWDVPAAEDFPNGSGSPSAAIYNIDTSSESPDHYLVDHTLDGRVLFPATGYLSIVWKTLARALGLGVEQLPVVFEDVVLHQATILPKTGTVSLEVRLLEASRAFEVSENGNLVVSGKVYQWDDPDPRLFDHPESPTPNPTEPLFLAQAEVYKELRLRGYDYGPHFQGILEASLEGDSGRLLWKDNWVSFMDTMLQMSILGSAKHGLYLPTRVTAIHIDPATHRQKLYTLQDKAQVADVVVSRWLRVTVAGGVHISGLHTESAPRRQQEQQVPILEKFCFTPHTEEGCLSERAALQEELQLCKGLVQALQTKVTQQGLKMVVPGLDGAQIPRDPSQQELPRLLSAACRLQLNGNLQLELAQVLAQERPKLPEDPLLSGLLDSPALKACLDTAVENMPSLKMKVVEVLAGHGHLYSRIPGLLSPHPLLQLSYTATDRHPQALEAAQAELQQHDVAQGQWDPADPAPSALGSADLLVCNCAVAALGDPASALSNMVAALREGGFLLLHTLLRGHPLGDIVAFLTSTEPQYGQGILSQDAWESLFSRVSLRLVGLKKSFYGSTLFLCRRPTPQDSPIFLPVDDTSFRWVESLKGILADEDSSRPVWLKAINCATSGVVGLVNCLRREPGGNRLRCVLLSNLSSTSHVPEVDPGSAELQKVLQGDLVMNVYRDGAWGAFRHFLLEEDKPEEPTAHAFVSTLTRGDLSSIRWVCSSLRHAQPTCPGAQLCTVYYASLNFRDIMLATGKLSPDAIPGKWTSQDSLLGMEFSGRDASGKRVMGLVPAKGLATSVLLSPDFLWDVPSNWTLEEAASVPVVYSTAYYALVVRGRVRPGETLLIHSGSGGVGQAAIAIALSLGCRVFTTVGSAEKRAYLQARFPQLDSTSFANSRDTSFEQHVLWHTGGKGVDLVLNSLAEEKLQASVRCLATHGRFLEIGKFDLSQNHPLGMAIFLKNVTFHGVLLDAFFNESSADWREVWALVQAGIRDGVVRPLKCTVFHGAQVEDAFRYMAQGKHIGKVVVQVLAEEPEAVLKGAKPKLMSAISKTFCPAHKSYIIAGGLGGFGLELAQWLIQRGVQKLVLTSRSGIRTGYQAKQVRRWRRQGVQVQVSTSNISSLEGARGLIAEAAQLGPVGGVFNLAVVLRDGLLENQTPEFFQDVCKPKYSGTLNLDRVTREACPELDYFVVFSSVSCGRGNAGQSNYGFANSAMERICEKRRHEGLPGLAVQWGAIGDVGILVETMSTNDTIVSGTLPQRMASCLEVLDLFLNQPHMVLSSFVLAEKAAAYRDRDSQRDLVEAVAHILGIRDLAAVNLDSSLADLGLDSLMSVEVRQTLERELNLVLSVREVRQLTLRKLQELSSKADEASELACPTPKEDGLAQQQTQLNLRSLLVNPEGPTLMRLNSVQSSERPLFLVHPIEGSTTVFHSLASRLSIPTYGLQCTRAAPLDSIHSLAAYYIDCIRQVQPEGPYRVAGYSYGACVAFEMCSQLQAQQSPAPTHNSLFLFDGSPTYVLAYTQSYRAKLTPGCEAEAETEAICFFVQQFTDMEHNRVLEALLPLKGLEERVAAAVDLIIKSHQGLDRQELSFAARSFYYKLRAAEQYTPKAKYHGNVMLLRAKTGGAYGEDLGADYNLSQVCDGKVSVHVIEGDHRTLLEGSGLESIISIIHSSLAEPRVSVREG

SMILES | IC50 [nM]
COc1ccc([C@@H]2CC(=O)c3c(O)c(C)c(O[C@@H]4O[C@H](CO[C@@H]5OC[C@H](O)[C@H](O)[C@H]5O)[C@@H](O)[C@H](O)[C@H]4O)c(C)c3O2)cc1 [MICONIOSIDE A] | > 82200
C/C=C/C/C=C/CCC(=O)[C@H]1O[C@H]1C(N)=O [CERULENIN] | 851
